Results: the NIST ThermoML archive (doi:10.1021/je7002836)

Key:
[1] = molar heat capacity at constant pressure; xn = mol fraction of the nth substance listed; settings: 101 kPa, Liquid
[2] = xn = mol fraction of the nth substance listed; settings: 101 kPa, Liquid

CCCC[n+]1cccc(C)c1.F[B-](F)(F)F [1-butyl-3-methylpyridinium tetrafluoroborate] + CCO
Settings	mass density, [2] [kg/m3]	molar heat capacity at constant pressure, [1] [J/K/mol]
293.15 K, x1 = 0.0073	800.5	113.6
293.15 K, x1 = 0.0126	807.8	115.2
293.15 K, x1 = 0.0231	821.5	119.1
293.15 K, x1 = 0.0512	855.1	129.4
293.15 K, x1 = 0.1003	904.1	146.4
293.15 K, x1 = 0.2569	1010.3	190.3
293.15 K, x1 = 0.3847	1065.4	223.7
293.15 K, x1 = 0.4841	1097.1	–
293.15 K, x1 = 0.5031	–	252.6
293.15 K, x1 = 0.5963	1124.9	276.9
293.15 K, x1 = 0.6919	–	301.6
293.15 K, x1 = 0.7107	1148	–
293.15 K, x1 = 0.7784	–	324.5
293.15 K, x1 = 0.7966	1162.2	–
293.15 K, x1 = 0.8711	–	350
293.15 K, x1 = 0.8923	–	355.9
293.15 K, x1 = 0.9514	1183.1	372.8
293.15 K, x1 = 1	1188.6	385.8
298.15 K, x1 = 0.0073	796.3	115.4
298.15 K, x1 = 0.0126	803.5	117.1
298.15 K, x1 = 0.0231	817.3	120.9
298.15 K, x1 = 0.0512	851	131
298.15 K, x1 = 0.1003	900.1	147.5
298.15 K, x1 = 0.2569	1006.4	191.3
298.15 K, x1 = 0.3847	1061.6	224.8
298.15 K, x1 = 0.4841	1093.4	–
298.15 K, x1 = 0.5031	–	254.2
298.15 K, x1 = 0.5963	1121.3	278.5
298.15 K, x1 = 0.6919	–	303.4
298.15 K, x1 = 0.7107	1144.5	–
298.15 K, x1 = 0.7784	–	326.6
298.15 K, x1 = 0.7966	1158.7	–
298.15 K, x1 = 0.8711	–	352.1
298.15 K, x1 = 0.8923	–	358.1
298.15 K, x1 = 0.9514	1179.6	375.1
298.15 K, x1 = 1	1185.2	387.7
303.15 K, x1 = 0.0073	792	117.3
303.15 K, x1 = 0.0126	799.3	119.1
303.15 K, x1 = 0.0231	813	122.7
303.15 K, x1 = 0.0512	846.8	132.6
303.15 K, x1 = 0.1003	896	148.7
303.15 K, x1 = 0.2569	1002.6	192.4
303.15 K, x1 = 0.3847	1057.9	226
303.15 K, x1 = 0.4841	1089.7	–
303.15 K, x1 = 0.5031	–	255.7
303.15 K, x1 = 0.5963	1117.7	280.1
303.15 K, x1 = 0.6919	–	305.3
303.15 K, x1 = 0.7107	1140.9	–
303.15 K, x1 = 0.7784	–	328.9
303.15 K, x1 = 0.7966	1155.2	–
303.15 K, x1 = 0.8711	–	354.4
303.15 K, x1 = 0.8923	–	360.5
303.15 K, x1 = 0.9514	1176.2	377.4
303.15 K, x1 = 1	1181.7	390.1
308.15 K, x1 = 0.0073	787.6	119.5
308.15 K, x1 = 0.0126	794.9	121.2
308.15 K, x1 = 0.0231	808.8	124.7
308.15 K, x1 = 0.0512	842.6	134.3
308.15 K, x1 = 0.1003	891.9	150.1
308.15 K, x1 = 0.2569	998.7	193.6
308.15 K, x1 = 0.3847	1054.2	227.2
308.15 K, x1 = 0.4841	1086.1	–
308.15 K, x1 = 0.5031	–	257.3
308.15 K, x1 = 0.5963	1114.2	281.8
308.15 K, x1 = 0.6919	–	307.3
308.15 K, x1 = 0.7107	1137.4	–
308.15 K, x1 = 0.7784	–	331.1
308.15 K, x1 = 0.7966	1151.7	–
308.15 K, x1 = 0.8711	–	356.9
308.15 K, x1 = 0.8923	–	363
308.15 K, x1 = 0.9514	1172.8	379.7
308.15 K, x1 = 1	1178.3	392.8
313.15 K, x1 = 0.0073	783.3	121.7
313.15 K, x1 = 0.0126	790.6	123.3
313.15 K, x1 = 0.0231	804.5	126.7
313.15 K, x1 = 0.0512	838.4	136
313.15 K, x1 = 0.1003	887.8	151.6
313.15 K, x1 = 0.2569	994.8	194.9
313.15 K, x1 = 0.3847	1050.4	228.5
313.15 K, x1 = 0.4841	1082.4	–
313.15 K, x1 = 0.5031	–	258.9
313.15 K, x1 = 0.5963	1110.6	283.5
313.15 K, x1 = 0.6919	–	309.4
313.15 K, x1 = 0.7107	1133.9	–
313.15 K, x1 = 0.7784	–	333.5
313.15 K, x1 = 0.7966	1148.3	–
313.15 K, x1 = 0.8711	–	359.5
313.15 K, x1 = 0.8923	–	365.7
313.15 K, x1 = 0.9514	1169.4	382
313.15 K, x1 = 1	1174.9	395.9
318.15 K, x1 = 0.0073	778.9	124.1
318.15 K, x1 = 0.0126	786.2	125.6
318.15 K, x1 = 0.0231	800.3	128.8
318.15 K, x1 = 0.0512	834.1	137.9
318.15 K, x1 = 0.1003	883.7	153.2
318.15 K, x1 = 0.2569	990.9	196.2
318.15 K, x1 = 0.3847	1046.7	229.8
318.15 K, x1 = 0.4841	1078.7	–
318.15 K, x1 = 0.5031	–	260.4
318.15 K, x1 = 0.5963	1107.1	285.3
318.15 K, x1 = 0.6919	–	311.5
318.15 K, x1 = 0.7107	1130.4	–
318.15 K, x1 = 0.7784	–	335.9
318.15 K, x1 = 0.7966	1144.8	–
318.15 K, x1 = 0.8711	–	362.2
318.15 K, x1 = 0.8923	–	368.5
318.15 K, x1 = 0.9514	1166	384.4
318.15 K, x1 = 1	1171.6	399.3

C[N+](=O)[O-] [nitromethane] + CCCC[n+]1cccc(C)c1.F[B-](F)(F)F
Settings	mass density, [2] [kg/m3]	molar heat capacity at constant pressure, [1] [J/K/mol]
293.15 K, x2 = 0	1140.2	106.6
293.15 K, x2 = 0.0517	1153.4	120.3
293.15 K, x2 = 0.1038	1161.5	134.2
293.15 K, x2 = 0.1952	1170.3	159.9
293.15 K, x2 = 0.3078	1176.7	–
293.15 K, x2 = 0.3563	1178.7	205.2
293.15 K, x2 = 0.3998	1180.1	217.4
293.15 K, x2 = 0.5121	1183	249.2
293.15 K, x2 = 0.5994	1184.6	273.7
293.15 K, x2 = 0.6856	1185.8	297.7
293.15 K, x2 = 0.7863	1186.9	326.4
293.15 K, x2 = 0.8842	1187.7	353.6
293.15 K, x2 = 0.9034	1187.9	359.1
293.15 K, x2 = 0.941	1188.2	369.8
298.15 K, x2 = 0	1133.4	106.9
298.15 K, x2 = 0.0517	1147.4	120.5
298.15 K, x2 = 0.1038	1156	134.7
298.15 K, x2 = 0.1952	1165.4	160.4
298.15 K, x2 = 0.3078	1172.2	–
298.15 K, x2 = 0.3563	1174.3	206
298.15 K, x2 = 0.3998	1175.9	218.3
298.15 K, x2 = 0.5121	1179	250.2
298.15 K, x2 = 0.5994	1180.7	274.8
298.15 K, x2 = 0.6856	1182.1	299
298.15 K, x2 = 0.7863	1183.3	327.8
298.15 K, x2 = 0.8842	1184.2	355.3
298.15 K, x2 = 0.9034	1184.4	360.8
298.15 K, x2 = 0.941	1184.8	371.6
303.15 K, x2 = 0	1126.6	107.3
303.15 K, x2 = 0.0517	1141.3	120.9
303.15 K, x2 = 0.1038	1150.5	135.2
303.15 K, x2 = 0.1952	1160.4	161
303.15 K, x2 = 0.3078	1167.8	–
303.15 K, x2 = 0.3563	1170	206.9
303.15 K, x2 = 0.3998	1171.6	219.3
303.15 K, x2 = 0.5121	1175	251.4
303.15 K, x2 = 0.5994	1176.9	276.2
303.15 K, x2 = 0.6856	1178.3	300.6
303.15 K, x2 = 0.7863	1179.7	329.6
303.15 K, x2 = 0.8842	1180.7	357.3
303.15 K, x2 = 0.9034	1180.9	362.9
303.15 K, x2 = 0.941	1181.3	373.7
308.15 K, x2 = 0	1119.7	107.7
308.15 K, x2 = 0.0517	1135.3	121.3
308.15 K, x2 = 0.1038	1144.9	135.7
308.15 K, x2 = 0.1952	1155.5	161.8
308.15 K, x2 = 0.3078	1163.3	–
308.15 K, x2 = 0.3563	1165.7	208
308.15 K, x2 = 0.3998	1167.4	220.5
308.15 K, x2 = 0.5121	1171	252.8
308.15 K, x2 = 0.5994	1173.1	277.9
308.15 K, x2 = 0.6856	1174.6	302.5
308.15 K, x2 = 0.7863	1176.1	331.7
308.15 K, x2 = 0.8842	1177.2	359.7
308.15 K, x2 = 0.9034	1177.4	365.3
308.15 K, x2 = 0.941	1177.9	376.2
313.15 K, x2 = 0	1112.9	108.2
313.15 K, x2 = 0.0517	1129.2	121.9
313.15 K, x2 = 0.1038	1139.4	136.4
313.15 K, x2 = 0.1952	1150.6	162.5
313.15 K, x2 = 0.3078	1158.8	–
313.15 K, x2 = 0.3563	1161.4	209.2
313.15 K, x2 = 0.3998	1163.2	221.9
313.15 K, x2 = 0.5121	1167	254.4
313.15 K, x2 = 0.5994	1169.2	279.8
313.15 K, x2 = 0.6856	1170.9	304.6
313.15 K, x2 = 0.7863	1172.5	334.1
313.15 K, x2 = 0.8842	1173.7	362.4
313.15 K, x2 = 0.9034	1174	368.1
313.15 K, x2 = 0.941	1174.4	379
318.15 K, x2 = 0	1106	108.6
318.15 K, x2 = 0.0517	1123.1	122.4
318.15 K, x2 = 0.1038	1133.9	137.1
318.15 K, x2 = 0.1952	1145.6	163.5
318.15 K, x2 = 0.3078	1154.4	–
318.15 K, x2 = 0.3563	1157.1	210.6
318.15 K, x2 = 0.3998	1159.1	223.5
318.15 K, x2 = 0.5121	1163.1	256.3
318.15 K, x2 = 0.5994	1165.4	281.9
318.15 K, x2 = 0.6856	1167.2	307
318.15 K, x2 = 0.7863	1169	336.8
318.15 K, x2 = 0.8842	1170.3	365.5
318.15 K, x2 = 0.9034	1170.5	371.1
318.15 K, x2 = 0.941	1171	382.3
